In patent publication US6936607B2, “2,4,6-Triaminopyrimidines for the treatment of depression and/or anxiety” (H. Lunobeck A/S, priority 2002, dated 2005) one finds Ki data, which are given here for 14 compounds.

pKi: −log10 of the molar value.

The target of this assay is T1, human GalR3 receptor (Homo sapiens, UniProt O60755).
T1 construct: expressed in transfected cells; host or cells: mouse fibroblast LM(tk-) cells, stably transfected; membranes
T1 sequence (O60755 1-368): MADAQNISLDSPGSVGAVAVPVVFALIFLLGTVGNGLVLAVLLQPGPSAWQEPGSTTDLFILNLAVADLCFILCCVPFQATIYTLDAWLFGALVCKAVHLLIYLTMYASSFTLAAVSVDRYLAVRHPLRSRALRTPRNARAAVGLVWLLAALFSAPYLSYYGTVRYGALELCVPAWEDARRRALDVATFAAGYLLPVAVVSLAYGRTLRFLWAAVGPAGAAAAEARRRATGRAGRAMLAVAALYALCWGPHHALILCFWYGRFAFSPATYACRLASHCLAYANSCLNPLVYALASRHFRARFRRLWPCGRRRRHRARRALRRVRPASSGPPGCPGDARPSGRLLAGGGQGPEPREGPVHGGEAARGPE
The assay can be described thus: Radioligand binding assay at cloned human GalR3 receptor. The following applies: Binding Data; membranes from LM(tk-) cells stably transfected with the human GalR3 receptor. As to the method:
LM(tk-) cells were stably transfected with the human GalR3 receptor. cDNAs for the human and rat GalR3 receptors were transfected with a G-418 resistant gene into the mouse fibroblast LM(tk-) cell line by a calcium phosphate transfection method (Cullen, 1987). Membranes were harvested from stably transfected LM(tk-) cells. Adherent cells were washed twice in ice-cold phosphate buffered saline (138 mM NaCl, 8.1 mM Na2HPO4, 2.5 mM KCl, 1.2 mM KH2PO4, 0.9 mM CaCl2, 0.5 mM MgCl2, pH 7.4) and lysed by sonication in ice-cold sonication buffer (20 mM Tris-HCl, 5 mM EDTA, pH 7.7). Large particles and debris were cleared by low speed centrifugation (200×g, 5 min, 4° C.). Membranes were collected from the supernatant fraction by centrifugation (32,000×g, 18 min, 4° C.), washed with ice-cold hypotonic buffer, and collected again by centrifugation (32,000×g, 18 min, 4° C.). The final membrane pellet was resuspended by sonication into a small volume of ice-cold binding buffer (˜1 ml for every 5 plates: 10 mM NaCl, 20 mM HEPES, 0.22 mM KH2PO4, 1.26 mM CaCl2, 0.81 mM MgSO4, pH 7.4). Protein concentration was measured by the Bradford method (Bradford, 1976) using Bio-Rad Reagent, with bovine serum albumin as a standard. Membranes were held on ice for up to one hour and used fresh, or flash frozen and stored in liquid nitrogen. Membranes were prepared similarly from CHO cells. The methods to obtain the cDNA of the receptors, express said receptors in heterologous systems, and carry out assays to determine binding affinity are described as follows. Binding assays were performed according to the following published method: human GALR3 (PCT International Publication No. WO 02/060392).
The pKi is the negative decadic logarithm of the Ki, by convention in mol/L. `C[C@H]1CN(c2nc(Nc3cccc(OCc4ccccc4)c3)cc(N(C)C)n2)C[C@H](C)O1` (racemic) [Example 48, (±)-N^4-[3-(BENZYLOXY)PHENYL]-2-(TRANS-2,6-DIMETHYL MORPHOLINYL)-N^6,N^6-DIMETHYL-4,6-PYRIMIDINEDIAMINE]: the negative logarithm of the Ki (pKi) is 7.52.
The same measure for `Cc1ccc(Nc2cc(N(C)C)nc(N3CCN(c4cccc(Cl)c4)CC3)n2)cc1` [Example 1, 2-[4-(3-CHLOROPHENYL)-1-PIPERAZINYL]-N^4,N^4-DIMETHYL-N^6-(4-METHYLPHENYL)-4,6-PYRIMIDINEDIAMINE]: 7.19.
For the compound `CN(C)c1cc(Nc2ccc3c(c2)CCC3)nc(N2CCN(c3cccc(Cl)c3)CC2)n1` [Example 2, 2-[4-(3-CHLOROPHENYL)-1-PIPERAZINYL]-N^4-(2,3-DIHYDRO-1H-INDEN-5-YL)-N^6,N^6-DIMETHYL-4,6-PYRIMIDINEDIAMINE], the pKi is 7.47.
The compound `Cc1ccc(Nc2cc(N(C)C)nc(N3CCN(c4ccccc4Cl)CC3)n2)cc1` [Example 3, 2-[4-(2-CHLOROPHENYL)-1-PIPERAZINYL]-N^4,N^4-DIMETHYL-N^6-(4-METHYLPHENYL)-4,6-PYRIMIDINEDIAMINE] gave a negative logarithm of the Ki (pKi) of 7.54.
As for `CN(C)c1cc(Nc2ccc3c(c2)CCC3)nc(N2CCN(c3ccccc3Cl)CC2)n1` [Example 4, 2-[4-(2-CHLOROPHENYL)-1-PIPERAZINYL]-N^4-(2,3-DIHYDRO-1H-INDEN-5-YL)-N^6,N^6-DIMETHYL-4,6-PYRIMIDINEDIAMINE], the figure is 7.27; as for `Cc1ccc(Nc2cc(N(C)C)nc(N3CCN(c4ccccc4F)CC3)n2)cc1` [Example 5, 2-[4-(2-FLUOROPHENYL)-1-PIPERAZINYL]-N^4,N^4-DIMETHYL-N^6-(4-METHYLPHENYL)-4,6-PYRIMIDINEDIAMINE], 6.93.
As for `CN(C)c1cc(Nc2ccc3c(c2)CCC3)nc(N2CCN(c3ccc(Cl)cc3)CC2)n1` [Example 6, 2-[4-(4-CHLOROPHENYL)-1-PIPERAZINYL]-N^4-(2,3-DIHYDRO-1H-INDEN-5-YL)-N^6,N^6-DIMETHYL-4,6-PYRIMIDINEDIAMINE], the figure is 7.28; as for `Cc1ccc(Nc2cc(N(C)C)nc(N3CCN(c4ccc(Cl)cc4)CC3)n2)cc1` [Example 7, 2-[4-(4-CHLOROPHENYL)-1-PIPERAZINYL]-N^4,N^4-DIMETHYL-N^6-(4-METHYLPHENYL)-4,6-PYRIMIDINEDIAMINE], 6.45.
`COc1cccc(Nc2cc(N(C)C)nc(N3CCN(c4cccc(Cl)c4)CC3)n2)c1` [Example 8, 2-[4-(3-CHLOROPHENYL)-1-PIPERAZINYL]-N^4-(3-METHOXYPHENYL)-N^6,N^6-DIMETHYL-4,6-PYRIMIDINEDIAMINE] showed a pKi of 6.97. Compared with the last compound, the pKi is 0.52 log units higher.
As for `CN(C)c1cc(Nc2ccc(C3CCCCC3)cc2)nc(N2CCN(c3cccc(Cl)c3)CC2)n1` [Example 9, 2-[4-(3-CHLOROPHENYL)-1-PIPERAZINYL]-N^4-(4-CYCLOHEXYLPHENYL)-N^6,N^6-DIMETHYL-4,6-PYRIMIDINEDIAMINE], the figure is 6.62; as for `CN(C)c1cc(Nc2ccc(C3CCCCC3)cc2)nc(N2CCN(c3ccc(Cl)cc3)CC2)n1` [Example 10, 2-[4-(4-CHLOROPHENYL)-1-PIPERAZINYL]-N^4-(4-CYCLOHEXYLPHENYL)-N^6,N^6-DIMETHYL-4,6-PYRIMIDINEDIAMINE], 7.33; as for `COc1cccc(Nc2cc(N(C)C)nc(N3CCN(c4ccccc4Cl)CC3)n2)c1` [Example 11, 2-[4-(2-CHLOROPHENYL)-1-PIPERAZINYL]-N^4-(3-METHOXYPHENYL)-N^6,N^6-DIMETHYL-4,6-PYRIMIDINEDIAMINE], 7.21.
Compound `CN(C)c1cc(Nc2ccc3c(c2)CCC3)nc(N2CCN(c3ccccc3F)CC2)n1` [Example 12, N^4-(2,3-DIHYDRO-1H-INDEN-5-YL)-2-[4-(2-FLUOROPHENYL)-1-PIPERAZINYL]-N^6,N^6-DIMETHYL-4,6-PYRIMIDINEDIAMINE] gave a negative logarithm of the Ki (pKi) of 7.12.
On to `COc1cccc(Nc2cc(N(C)C)nc(N3CCN(c4ccccc4F)CC3)n2)c1` [Example 13, 2-[4-(2-FLUOROPHENYL)-1-PIPERAZINYL]-N^4-(3-METHOXYPHENYL)-N^6,N^6-DIMETHYL-4,6-PYRIMIDINEDIAMINE], for which the pKi was 7.03.
